Test results from patent US9034918B2, “Composition including at least one trans-cinnamaldehyde and the use thereof in the treatment of bacterial infections, specifically in the treatment of nosocomial infections” (SEPTEOS, priority 2009, dated 2015).

Legend:
Test in all cases: Antibiogram by diffusion technique (CA-SFM 2008)
Format in all cases: cell-based
[1] = system: Enterobacter aerogenes (9004); settings: strain 9004
Description: (§1) Three clinical categories were selected for interpretation of the in vitro sensitivity tests: sensitive (S), resistant (R) and intermediate (I). • The strains categorized S are those for which the probability of therapeutic success is high in the case of treatment by systemic route with the dosing schedule recommended in the summary of product characteristics (SPC) prepared by the French Health Products Safety Agency (AFSSAPS). • The strains categorized R are those for which there is a high probability of therapeutic failure regardless of treatment type and antibiotic dose. • The strains categorized I are those for which therapeutic success cannot be predicted. These strains form a heterogeneous group for which the results obtained in vitro are not predictive of therapeutic success. […] The intermediate category is also a buffer zone which takes into account technical and biological uncertainties.
(§2) The sensitivity of strains to antibiotics was determined by a diffusion technique according to the 2008 recommendations by the Antibiogram Committee of the French Microbiology Society (CA-SFM).
(§3) In terms of critical concentrations and diameters, strains are categorized as follows: • sensitive (S): strains for which the MIC of the antibiotic tested is less than or equal to the lower critical concentration c, which is equivalent to a diameter greater than or equal to the critical diameter D; • resistant (R): strains for which the MIC of the antibiotic tested are greater than the upper critical concentration C, corresponding to a diameter less than the critical diameter d; • intermediate sensitivity (I): strains for which the MIC of the antibiotic tested and the corresponding diameter are between the two critical concentrations and the two critical diameters.
(§4) The tests were carried out on Mueller-Hinton agar. An inoculum adjusted to 0.5 on the McFarland scale is then diluted to 1/100. Petri dishes are inoculated by swabbing. The dishes are read after 24 hours of incubation at 37° C.
(§5) The raw results are then interpreted according to the interpretative reading rules of the CA-SFM.

[2] = system: E. coli strain 9003
Description: as §1, §2, §3, §4, §5

[3] = system: strain 9010, Acinetobacter baumannii, with VEB-1 ESBL
Description: as §1, §2, §3, §4, §5

[4] = system: strain 9007, Pseudomonas aeruginosa, with VIM-2 carbapenemase
Description: as §1, §2, §3, §4, §5

[5] = system: golden staph (S. aureus) strain 8240; parameters: D: unit not given here
Description: as §1, §2, §3, §4, §5

[6] = system: E. coli strain 8155; parameters: D: unit not given here
Description: as §1, §2, §3, §4, §5

[7] = system: Pseudomonas aeruginosa strain 8129; parameters: D: unit not given here
Description: as §1, §2, §3, §4, §5

[8] = system: golden staph (S. aureus) strain 8239; parameters: D: unit not given here
Description: as §1, §2, §3, §4, §5

[9] = system: Pseudomonas aeruginosa strain 8134; parameters: D: unit not given here
Description: as §1, §2, §3, §4, §5

[10] = system: golden staph (S. aureus) strain 8147; parameters: D: unit not given here
Description: as §1, §2, §3, §4, §5

[11] = system: E. coli strain 8156; parameters: D: unit not given here
Description: as §1, §2, §3, §4, §5

[12] = system: E. coli strain 8154; parameters: D: unit not given here
Description: as §1, §2, §3, §4, §5

[13] = system: E. coli strain 8157; parameters: D: unit not given here
Description: as §1, §2, §3, §4, §5

[14] = system: Pseudomonas aeruginosa strain 8128; parameters: D: unit not given here
Description: as §1, §2, §3, §4, §5

[15] = system: Pseudomonas aeruginosa strain 8132; parameters: D: unit not given here
Description: as §1, §2, §3, §4, §5

[16] = system: E. coli ATCC 25922; parameters: Diameter (D): unit not given here
Description: Three clinical categories were selected for interpretation of the in vitro sensitivity tests: sensitive (S), resistant (R) and intermediate (I). • The strains categorized S are those for which the probability of therapeutic success is high in the case of treatment by systemic route with the dosing schedule recommended in the summary of product characteristics (SPC) prepared by the French Health Products Safety Agency ([…]). • The strains categorized R are those for which there is a high probability of therapeutic failure regardless of treatment type and antibiotic dose. • The strains categorized I are those for which therapeutic success cannot be predicted. These strains form a heterogeneous group for which the results obtained in vitro are not predictive of therapeutic success. […] The intermediate category is also a buffer zone which takes into account technical and biological uncertainties. The sensitivity of strains to antibiotics was determined by a diffusion technique according to the 2008 recommendations by the Antibiogram Committee of the French Microbiology Society (CA-SFM). In terms of critical concentrations and diameters, strains are categorized as follows: • sensitive (S): strains for which the MIC of the antibiotic tested is less than or equal to the lower critical concentration c, which is equivalent to a diameter greater than or equal to the critical diameter D; • resistant (R): strains for which the MIC of the antibiotic tested are greater than the upper critical concentration C, corresponding to a diameter less than the critical diameter d; • intermediate sensitivity (I): strains for which the MIC of the antibiotic tested and the corresponding diameter are between the two critical concentrations and the two critical diameters. The tests were carried out on Mueller-Hinton agar. An inoculum adjusted to 0.5 on the McFarland scale is then diluted to 1/100. Petri dishes are inoculated by swabbing. The dishes are read after 24 hours of incubation at 37° C. The raw results are then interpreted according to the interpretative reading rules of the CA-SFM. Two examples: all strains of methicillin-resistant Staphylococcus are resistant to all beta-lactams, and the same is true for gentamicin-resistant strains; golden staph is necessarily resistant to kanamycin (and amikacin) and tobramycin. The quality of the diffusion method is controlled using E. coli strain ATCC 25922.

[17] = system: Enterococcus strain 8153; parameters: Diameter: unit not given here
Description: as §1, §2, §3, §4, §5

[18] = system: Enterococcus strain 8152; parameters: Diameter: unit not given here
Description: as §1, §2, §3, §4, §5

Compound | Category [1] | Category [2] | Category [3] | Category [4] | Cat. [6] | D [6] | Cat. [7] | D [7] | Cat. [9] | D [9] | Cat. [11] | D [11] | Cat. [12] | D [12] | Cat. [13] | D [13] | Cat. [14] | Cat. [15] | Category (Cat.) [16] | Diameter (D) [16] | other results
CO/N=C(\C(=O)N[C@@H]1C(=O)N2C(C(=O)O)=C(COC(C)=O)CS[C@H]12)c1csc(N)n1 [Cefotaxime] | R | R | – | – | – | – | – | – | – | – | – | – | – | – | – | – | – | – | – | – | –
CCn1cc(C(=O)O)c(=O)c2cc(F)c(N3CCNCC3)cc21 [Noroxin] | R | R | – | – | – | – | – | – | – | – | – | – | – | – | – | – | – | – | – | – | –
Colimycin | S | S | – | – | – | – | – | – | – | – | – | – | – | – | – | – | – | – | – | – | –
CC(=O)OCC1=C(C(=O)O)N2C(=O)[C@@H](NC(=O)Cc3cccs3)[C@H]2SC1 [Cefalotin] | R | R | R | R | S | 21 | R | 0 | R | 0 | S | 20 | S | 21 | S | 19 | R | R | S | 20 | Cat. [5]: R; D [5]: 17; Cat. [8]: R; D [8]: 17; Cat. [10]: R; D [10]: 17; D [14]: 0; D [15]: 0
Pristinamycin | – | – | – | – | – | – | – | – | – | – | – | – | – | – | – | – | – | – | – | – | Cat. [5]: S; D [5]: 27; Cat. [8]: S; D [8]: 32; Cat. [10]: S; D [10]: 29; Category [17]: S; Diameter [17]: 22; Category [18]: S; Diameter [18]: 23
Bactrim | R | S | – | – | – | – | – | – | – | – | – | – | – | – | – | – | – | – | – | – | –
CC(C)(O/N=C(\C(=O)N[C@@H]1C(=O)N2C(C(=O)[O-])=C(C[n+]3ccccc3)CS[C@H]12)c1csc(N)n1)C(=O)O [Ceftazidime] | R | R | R | S | S | 30 | R | 0 | S | 25 | S | 33 | S | 30 | S | 30 | S | S | S | 25 | D [14]: 25; D [15]: 26
CCn1cc(C(=O)O)c(=O)c2ccc(C)nc21 [Nalidixic acid] | – | – | R | R | S | 28 | R | 0 | R | 0 | S | 27 | S | 24 | R | 0 | R | R | S | 28 | D [14]: 0; D [15]: 0
C[C@@H](O)[C@H]1C(=O)N2C(C(=O)O)=C(SCCN=CN)C[C@H]12 [Imipenem] | S | S | S | R | S | 34 | S | 36 | S | 26 | S | 34 | S | 33 | I | 20 | I | R | S | 34 | D [14]: 18; D [15]: 13
NCC[C@H](O)C(=O)N[C@@H]1C[C@H](N)[C@@H](O[C@H]2O[C@H](CN)[C@@H](O)[C@H](O)[C@H]2O)[C@H](O)[C@H]1O[C@H]1O[C@H](CO)[C@@H](O)[C@H](N)[C@H]1O [Amikacin] | I | S | – | – | – | – | – | – | – | – | – | – | – | – | – | – | – | – | – | – | –
CO[C@@]1(NC(=O)Cc2cccs2)C(=O)N2C(C(=O)O)=C(COC(N)=O)CS[C@@H]21 [Cefoxitin] | – | – | R | R | S | 25 | R | 0 | R | 0 | S | 26 | S | 26 | S | 30 | R | R | S | 24 | D [14]: 0; D [15]: 0; Category [17]: S; Diameter [17]: 25; Category [18]: R; Diameter [18]: 0
C[C@@H](O)[C@H]1C(=O)N2C(C(=O)O)=C(S[C@@H]3CN[C@H](C(=O)Nc4cccc(C(=O)O)c4)C3)[C@H](C)[C@H]12 [Eratpenem] | S | S | – | – | – | – | – | – | – | – | – | – | – | – | – | – | – | – | – | – | –
CC1(C)S[C@@H]2[C@H](NC(=O)[C@H](C(=O)O)c3ccsc3)C(=O)N2[C@H]1C(=O)O [Ticarcillin] | R | R | R | R | S | 31 | R | 13 | S | 23 | S | 28 | R | 0 | R | 0 | I | R | S | 25 | D [14]: 21; D [15]: 12
CO/N=C(\C(=O)N[C@@H]1C(=O)N2C(C(=O)[O-])=C(C[N+]3(C)CCCC3)CS[C@H]12)c1csc(N)n1 [Cefepime] | R | R | R | S | S | – | S | – | S | – | S | – | S | – | S | – | S | S | S | 25 | –
